Where “and” joins values, the source holds several entries; their conditions need not be identical. Equal entries are not always repeated.
Experiments:
[1] = Two arm PK study in dogs: amoxicillin levels in dog serum with or without Formulation 2 (TABLE 17); assay type: in vivo, beagle dogs; settings: for Amoxicillin levels in dog serum, 0.00 hr: pre-dose
Experimental: Formulation 2 (TABLE 17) was chosen for evaluation in dogs. A two arm pharmacokinetics (PK) study was performed in three non-naïve male beagle dogs (age 2 years, approximately 12 kg). Animals were fasted overnight prior to the day of dosing in each arm. In Arm 1, the dogs were administered one dose of an amoxicillin suspension (amoxicillin powder, Sandoz, Lot FW1707, reconstituted in apple juice to 400 mg/5 ml) via oral gavage at 80 mg/kg. Animals were returned to their cages post-dose and fed 1.5 hrs after amoxicillin dosing. In Arm 2, dogs were administered an amoxicillin suspension (80 mg/kg, prepared as in Arm 1) via oral gavage. Immediately after the oral amoxicillin was dosed, the animals received one size 4 capsule of Formulation 2 (TABLE 17) containing 10 mg of SYN-004. The capsules were not chewed and were swallowed whole. Capsules were dosed by hand by placing the capsule in the back of the dog's mouth and followed by 6 mL of Mott's 100% apple juice in a syringe. Animals were returned to their cages post-dose and fed 1.5 hrs after amoxicillin dosing. There was a seven day washout period between the two arms. In both arms of the study, blood (approximately 2 mL) was collected for serum PK analysis at pre-dose, and 30 minutes, 1, 2, 3, 4, 6, 8, and 10 hrs post-dose. Serum was collected and immediately frozen at −80° C. Feed was ad-libitum throughout both arms, except during dosing, which was done fasted as described. […] Animals were returned to the colony following the last blood collection.
Serum was analyzed for amoxicillin levels using a validated liquid chromatography (LC) method with tandem mass spectrometry detection (LC/MS/MS). Briefly, the serum samples were extracted using the protein precipitation extraction method and analyzed using reverse phase LC. Amoxicillin and amoxicillin-d4 (internal standard) were detected using tandem MS. The study was performed using Applied Biosystems Triple Quad API 500 LC/MS/MS system with Turbo ion spray interfaces. The data were acquired and analyzed by Applied Biosystems “Analyst” software, version 1.5. The lower limit of quantitation (LLOQ) for amoxicillin was 101.723 ng/ml. The upper limit of quantitation (ULOQ) for amoxicillin was 20344.678 ng/ml. A calibration curve consisting of two control blanks, two zero standards and ten non-zero standards, prepared in naïve dog serum, covering a range of 101.723 to 20344.678 ng/ml, were run with each sample batch. Amoxicillin levels were similar for each animal in Arm 1 and Arm 2 of the study (TABLE 19). The amoxicillin serum levels in Arm 1 and Arm 2 for each dog were plotted separately and the area under the curves was calculated (FIG. 25). The area under the curve for each animal was similar in Arm 1 and Arm 2 of the study. […] Therefore, the strategy to reduce the potential for premature release, release in the small intestine prior to absorption of orally-delivered amoxicillin, by using FS 30 D-coated SYN-004 layered sucrose pellets incorporated inside FS 30 D-coated capsule, or the “nested” strategy, was successful as indicated by the similar amoxicillin blood levels in each dog with and without SYN-004.

in vivo = settings: Yorkshire, pig
Experimental: A study was performed using normal piglets to compare the three, modified-release formulations of SYN-004 as described in Example 2, and the original SYN-004 formulation (Enteric pH 5.5) as described in Example 1, delivered orally with oral amoxicillin, to evaluate the effect on amoxicillin serum levels and protection of the microbiome from amoxicillin-induced dysbiosis (FIG. 20).
A total of 25, two month old Yorkshire piglets, approximately 20 kg each, were used for this study. All 25 animals were treated with oral amoxicillin twice a day for a total of 7 days, in addition, Groups 2-5 received SYN-004 four times a data starting the day before amoxicillin treatment for a total of 9 days (TABLE 7).
On Study Day 0, Groups 2-5 (Pigs 6-25) received one size 0 capsule of one of each of the four SYN-004 formulations, containing 50 mg of SYN-004, orally, four times a day at 7 am, 12 pm, 5 pm, and 10 pm for a total of 9 days. Pigs were fed 3 times a day, after SYN-004 dosing at 7 am, after SYN-004 dosing at 12 pm, and after SYN-004 dosing at 5 pm. Beginning on Study Day 1, all groups, 1-5 (Pigs 1-25), received oral amoxicillin (fruit flavored oral suspension, Sandoz, NDC: 0781-6157-46, Lot #FB0703; 20 mg/kg) twice a day at 7 am and at 5 pm, for a total of 7 days. […]
Amoxicillin levels in the pig serum were quantified using a validated liquid chromatography method with MS/MS detection.

[2] = Piglet study of modified nested SYN-004 formulation with oral amoxicillin; assay type: in vivo, Yorkshire piglets; settings: pig serum three hours after oral amoxicillin 40 mg/kg
Experimental: Formulation 2 (TABLE 17) capsules consisting of FS 30 D-coated SYN-004 pellets within FS 30 D-coated capsules were prepared for testing in normal piglets. For this formulation, size 9H gelatin capsules (small capsules, 2.7 mm diameter, 5 mm length) were filled with 3 pellets of FS 30 D-coated SYN-004 sucrose cores, then coated with FS 30 D. The coated 9H capsule containing the SYN-004 pellets was then inserted into a size 5 gelatin capsule for ease of delivery to the pigs (FIG. 26). Each FS 30 D-coated pellet of SYN-004 contained […] of SYN-004. Therefore, the total SYN-004 dose was 0.5 mg/size 5 gelatin capsule. The anticipated advantage of this nested strategy using the small 9H capsules is that the gelatin capsule will dissolve in the stomach, releasing the small FS 30 D-coated 9H capsule that is protected from stomach acid and is small enough to pass through the gastric pylorus without the need for stomach emptying. […] Amoxicillin levels were similar in animals treated with amoxicillin alone and with amoxicillin plus the SYN-004 (FIG. 27; TABLE 20).

[3] = Arm 1: amoxicillin 80 mg/kg oral gavage alone
[4] = Arm 2: amoxicillin 80 mg/kg + one capsule Formulation 2 (TABLE 17), 10 mg SYN-004

Amoxicillin levels in dog serum, 0.50 hr [1, 3]: 17908.396 ng/mL and 16720.439 ng/mL
Amoxicillin levels in dog serum, 2.00 hr [1, 4]: 30317.167 ng/mL and 35935.251 ng/mL
concentration at 10 h ([1]; male, beagle, dog, serum, oral, 80 mg/kg, Arm 1: amoxicillin 80 mg/kg oral gavage alone): 183 ng/mL
concentration at 0.5 h ([1]; male, beagle, dog, serum, oral, 80 mg/kg, Arm 1: amoxicillin 80 mg/kg oral gavage alone, read-out: Amoxicillin levels in dog serum, 0.50 hr): 12600 ng/mL
concentration at 2 h ([1]; male, beagle, dog, serum, oral, Arm 2: amoxicillin 80 mg/kg + one capsule Formulation 2 (TABLE 17), 10 mg SYN-004): 18700 ng/mL
area under the curve, Arm 1 versus Arm 2 ([1]; serum amoxicillin, each animal): similar
concentration at 3 h (in vivo; Amoxicillin (ng/ml) 3 hours): 1160 to 2320 ng/mL
concentration at 6 h (in vivo; Amoxicillin (ng/ml) 6 hours): 667 to 1160 ng/mL
concentration at 3 h ([2]; Yorkshire, pig, serum, oral, 40 mg/kg, Amoxicillin Serum Levels (ng/ml) Mean, alone or with SYN-004 0.5 mg, 5 pigs, heading: Amoxicillin Serum Levels Mean): 182 ng/mL
SMILES: CC1(C)S[C@@H]2[C@H](NC(=O)[C@H](N)c3ccc(O)cc3)C(=O)N2[C@H]1C(=O)O [Amoxicillin]
Amoxicillin levels in dog serum, 0.00 hr [1, 3]: BLQ (BLQ: Below lower limit of quantitation)
Amoxicillin levels in dog serum, 0.00 hr [1, 4]: BLQ (BLQ: Below lower limit of quantitation)
Amoxicillin Serum Levels (ng/ml), individual animal ([2]; alone or with one capsule SYN-004 modified nested formulation (0.5 mg)): 29647 ng/mL and 6498 ng/mL and 25130 ng/mL and 14936 ng/mL and 14757 ng/mL

Reference: US12274740B2, “Microbiome protection from oral antibiotics” (Theriva Biologics, Inc., priority 2016, dated 2025)
